Experimental data from publication PMC2888720 (Journal of medicinal chemistry, 2009).

Experiments:
[1] = system: wild-type nontransfected HL-60 cells; experiment: Ca2+ mobilization in wild-type nontransfected HL-60 cells; details: control cells which do not express FPRs
human neutrophils [2] = experiment: Chemotaxis assay in human neutrophils; type: cell-based; details: Neutrophil, read-out: EC50 Chemotaxis
human neutrophils [3] = experiment: Ca2+ mobilization in human neutrophils; type: cell-based; details: Neutrophil, read-out: EC50 Ca2+ mobilization

Row | Compound | Ca2+ flux response in wild-type (nontransfected, undifferentiated) HL-60 cells [1] | EC50 (human neutrophils [2]) [nM] | EC50 (human neutrophils [3]) [nM]
1 | COc1cccc(Cc2cc(C)nn(CC(=O)Nc3ccc(Br)cc3)c2=O)c1 [14a, N-(4-Bromophenyl)-2-[5-(3-methoxybenzyl)-3-methyl-6-oxo-6H-pyridazin-1-yl]-acetamide] | no response was observed |  | 
2 | COc1cccc(Cc2cc(C)nn(CC(=O)Nc3ccc4c(c3)OCO4)c2=O)c1 [14m, N-Benzo[1,3]dioxol-5-yl-2-[5-(3-methoxybenzyl)-3-methyl-6-oxo-6H-pyridazin-1-yl]-acetamide] |  | 1200 ± 600 | 
3 | COc1cccc(Cc2cc(C)nn(CC(=O)Nc3ccc([N+](=O)[O-])cc3)c2=O)c1 [14p, 2-[5-(3-Methoxybenzyl)-3-methyl-6-oxo-6H-pyridazin-1-yl]-N-(4-nitrophenyl)-acetamide] |  | 1900 ± 600 | 21700 ± 4200
